Results: patent US20100255580A1, “Differentiation of Human Embryonic Stem Cells” (LIFESCCAN, INC., priority 2007, published 2010)

System: H9 embryonic stem cells
Assay: Immunofluorescence staining of DE markers +/- Wnt-3a (Example 27)
Assay type: cell-based, human
Settings: 20 ng/ml Wnt-3a; Day 5 DE cultures
From the text: Day 5 DE cultures of H9 cells were stained according to Example 10 for SOX-17, HNF-3B, GATA-4, N-cadherin, and E-cadherin. All nuclei were counter stained with DAPI.

## Wnt-3a
  expression of N-cadherin: enhanced expression
  expression of e-cadherin: significant loss
  nuclei stained positive for SOX-17, HNF-3beta. and GATA-4: significantly larger number
